Measured values from patent US6458796B1, “Dihydro-[1,2,3]triazolo-[4,5-d]pyrimidin-7-one” (Bayer Aktiengesellschaft, priority 1998, dated 2002).

How the values were obtained:
[1] = test system: T1, Ca2+-calmodulin-stimulated PDE I; assay: Inhibition of the phosphodiesterases in vitro: PDE I; format: biochemical, porcine or bovine (preferably bovine aorta); conditions: 1 μM CaCl2 and 0.1 μM calmodulin added; substrate 10^-6 mol/l
T1 construct: The Ca^2+-calmodulin-stimulated PDE I was isolated from porcine aorta, porcine brain or, preferably, from bovine aorta
Method: (§1) The c-GMP-stimulated PDE II, the c-GMP-inhibited PDE III and the cAMP-specific PDE IV were isolated either from porcine or bovine heart myocardium. The Ca^2+-calmodulin-stimulated PDE I was isolated from porcine aorta, porcine brain or, preferably, from bovine aorta. The c-GMP-specific PDE V was obtained from porcine small intestine, porcine aorta, human platelets and, preferably, from bovine aorta. Purification was carried out by anion exchange chromatography over MonoQ^R Pharmacia, essentially following the method of M. Hoey and Miles D. Houslay, Biochemical Pharmacology, Vol. 40, 193-202 (1990) and C. Lugman et al. Biochemical Pharmacology Vol. 35 1743-1751 (1986).
(§2) The enzyme activity is determined using a test mixture of 100 μl in 20 mM Tris/HCl buffer pH 7.5 containing 5 mM MgCl2, 0.1 mg/ml of bovine serum albumin and either 800 Bq ^3HcAMP or ^3HcGMP. The final concentration of the nucleotides in question is 10^−6 mol/l. The reaction is initiated by addition of the enzyme and the amount of enzyme is such that during the incubation time of 30 min, approximately 50% of the substrate is converted. To test the cGMP-stimulated PDE II, ^3HcAMP is used as substrate and 10^−6 mol/l of non-labelled cGMP are added to the mixture. To test the Ca-calmodulin-dependent PDE I, 1 μM of CaCl2 and 0.1 μM of calmodulin are added to the reaction mixture. The reaction is quenched by addition of 100 μL of acetonitrile, containing 1 mM cAMP and 1 mM AMP. 100 μl of the reaction mixture are separated by HPLC and the cleavage products are determined quantitatively on-line using a continuous scintillation counter. The substance concentration measured is the concentration at which the reaction rate is reduced by 50%. Additionally, the “phodiesterase [^3H] cAMP-SPA enzyme assay” and the “phosphodiesterase [^3H] cGMP-SPA enzyme assay” from Amersham Life Science were used for testing. The test was carried out according to the test protocol of the manufacturer. To determine the activity of PDE2, the [^3H] cAMP-SPA assay was used, and 10^−6 M cGMP were added to the reaction mixture to activate the enzyme. To measure PDE1, 10^−7 M calmodulin and 1 μM CaCl2 were added to the reaction mixture. PDE5 was measured using the [^3H] cGMP-SPA assay.

c-GMP-stimulated PDE II = molecular target: T2, c-GMP-stimulated PDE II (UniProt P14099); assay: Inhibition of the phosphodiesterases in vitro: PDE II; format: biochemical, porcine or bovine (heart myocardium); conditions: 3HcAMP substrate, 10^-6 mol/l cGMP added
T2 sequence (P14099 1-921): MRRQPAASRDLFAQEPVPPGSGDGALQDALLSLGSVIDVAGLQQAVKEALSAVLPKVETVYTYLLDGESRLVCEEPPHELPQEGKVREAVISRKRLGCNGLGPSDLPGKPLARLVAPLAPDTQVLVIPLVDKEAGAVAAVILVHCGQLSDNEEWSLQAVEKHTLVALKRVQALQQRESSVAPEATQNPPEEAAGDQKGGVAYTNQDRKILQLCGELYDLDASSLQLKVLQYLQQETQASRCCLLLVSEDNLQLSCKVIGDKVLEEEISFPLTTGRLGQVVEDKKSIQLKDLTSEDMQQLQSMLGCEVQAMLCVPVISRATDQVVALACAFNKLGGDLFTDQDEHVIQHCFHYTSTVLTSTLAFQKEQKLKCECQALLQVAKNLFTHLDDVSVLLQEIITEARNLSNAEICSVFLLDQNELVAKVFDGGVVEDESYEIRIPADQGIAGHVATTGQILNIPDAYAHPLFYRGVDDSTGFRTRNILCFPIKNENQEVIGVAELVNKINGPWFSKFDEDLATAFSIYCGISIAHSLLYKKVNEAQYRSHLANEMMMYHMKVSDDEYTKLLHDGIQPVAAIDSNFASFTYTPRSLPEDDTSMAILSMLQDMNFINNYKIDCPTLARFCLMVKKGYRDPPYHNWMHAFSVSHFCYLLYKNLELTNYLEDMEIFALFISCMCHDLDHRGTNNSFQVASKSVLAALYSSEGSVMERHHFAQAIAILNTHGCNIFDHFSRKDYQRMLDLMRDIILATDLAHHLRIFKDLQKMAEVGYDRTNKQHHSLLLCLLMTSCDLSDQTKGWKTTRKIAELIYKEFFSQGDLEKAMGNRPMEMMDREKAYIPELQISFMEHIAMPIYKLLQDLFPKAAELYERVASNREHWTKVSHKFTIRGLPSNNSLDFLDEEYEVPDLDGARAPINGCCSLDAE
Method: as §1, §2

c-GMP-specific PDE V = molecular target: T3, c-GMP-specific PDE V (Bos taurus, UniProt Q28156); assay: Inhibition of the phosphodiesterases in vitro: PDE V; format: biochemical, porcine, human platelets or, preferably, bovine aorta; conditions: 3HcGMP substrate 10^-6 mol/l
T3 construct: porcine aorta, human platelets and, preferably, from bovine aorta; from tissue; host or cells: porcine small intestine, porcine aorta, human platelets or, preferably, bovine aorta
Method: as §1, §2

SMILES	melting point	IC50 [1]	IC50 (c-GMP-stimulated PDE II)	IC50 (c-GMP-specific PDE V)
CC(CCCc1ccccc1)n1nnc2c(=O)[nH]c(Cc3ccc(S(=O)(=O)NCCO)cc3)nc21 (stereo not shown) [Example 23, N-(2-Hydroxyethyl)-4-[3-(1-methyl-4-phenyl-butyl)-7-oxo-6,7-dihydro-3H-[1,2,3]triazolo[4,5-d]pyrimidin-5-ylmethyl]benzenesulphonamide]	–	0.1 µM	0.1 µM	> 1 µM
CC(O)C(CCCc1ccccc1)n1nnc2c(=O)[nH]c(Cc3ccc4c(c3)OCO4)nc21 (stereo not shown) [Example 30, 5-Benzo[1,3]dioxol-5-ylmethyl-3-[1-(1-hydroxy-ethyl)-4-phenyl-butyl]-3,6-dihydro-[1,2,3]triazolo[4,5-d]pyrimidin-7-one]	–	0.5 µM	0.3 µM	≥ 1 µM
COc1ccc(Cc2nc3c(nnn3C(CCCc3ccccc3)C(C)O)c(=O)[nH]2)cc1OC (stereo not shown) [Example 31, 5-(3,4-Dimethoxy-benzyl)-3-[1-(1-hydroxy-ethyl)-4-phenyl-butyl]-3,6-dihydro-[1,2,3]triazolo[4,5-d]pyrimidin-7-one]	–	> 1 µM	0.04 µM	> 1 µM

More lines, now with the values ahead:

melting point	IC50 [1]	IC50 (c-GMP-stimulated PDE II)	IC50 (c-GMP-specific PDE V)	SMILES
112 °C	–	–	–	CC(CCCc1ccccc1)n1nnc2c(=O)[nH]c(Cc3ccccc3)nc21 (stereo not shown) [Example 4, 5-Benzyl-3-(1-methyl-4-phenyl-butyl)-3,6-dihydro-[1,2,3]triazolo[4,5-d]pyrimidin-7-one]
–	0.5 µM	0.08 µM	0.5 µM	COc1ccc(Cc2nc3c(nnn3C(C)CCCc3ccccc3)c(=O)[nH]2)cc1OC (stereo not shown) [Example 5, 5-(3,4-Dimethoxy-benzyl)-3-(1-methyl-4-phenyl-butyl)-3,6-dihydro-[1,2,3]triazolo-[4,5-d]pyrimidin-7-one]
–	0.2 µM	0.2 µM	> 1 µM	CNS(=O)(=O)c1ccc(Cc2nc3c(nnn3C(C)CCCc3ccccc3)c(=O)[nH]2)cc1 (stereo not shown) [Example 19, N-Methyl-4-[3-(1-methyl-4-phenyl-butyl)-7-oxo-6,7-dihydro-3H-[1,2,3]-triazolo-[4,5-d]pyrimidin-5-ylmethyl]-benzenesulphonamide]
